Laboratory results as given in PMC5424428, “Characteristics of L-citrulline transport through blood-brain barrier in the brain capillary endothelial cell line (TR-BBB cells)” (Journal of Biomedical Science, 2017).
“Also recorded” adds a separate entry of the source. Read-outs that look alike come from different tables or passages of the source.

What was measured:
TR-BBB cells [1] = assay: Inhibition of [14C]L-citrulline uptake in TR-BBB cells by unlabeled amino acids, transporter inhibitors and drugs; assay type: cell-based, rat; settings: for Effect on [14C]L-citrulline uptake: TR-BBB cells, unlabeled compound present
Protocol: (§1) The TR-BBB cells established from transgenic rats harboring the temperature-sensitive simian virus 40 large T-antigen, an in vitro BBB model, were cultured at 33 °C as described previously (21). TR-BBB cells were received from Professor Tetsuya Terasaki (Tohoku University, Japan) and were cultured with Dulbecco’s modified Eagle’s medium (Invitrogen, San Diego, CA), supplemented with 10% fetal bovine serum, 100 U/mL penicillin, 100 μg/mL streptomycin (Invitrogen, San Diego, CA) and 15 μg/L endothelial cell growth factor (Roche, Mannheim, Germany) at 33 °C in a humidified atmosphere of 5% CO2/air. On rat tail collagen type I-coated 24 well culture plates (IWAKI, Tokyo, Japan) initial seeding was carried out at 1 × 10^5 cells/well for the uptake study. After incubation for 2 days at 33 °C, the cultures became confluent and then they were used in the transport study. L-Citrulline free medium was used all experiments except for experiments on saturation kinetics of [^14C]L-citrulline uptake (Fig. 2), Lineweaver-Burk plots for [^14C]L-citrulline uptake (Fig. 4), or inhibitory effect of L-amino acids as a control (Table 2).
(§2) The [^14C] L-citrulline uptake study was performed according to the previous report. Briefly, extracellular fluid (ECF) buffer containing [^14C]L-citrulline (44.4 μM) in the presence or absence of unlabeled inhibitors was added to the TR-BBB cells and then incubated at pH 7.4 and 37 °C for the designated time (5 min). Uptake was terminated by the addition of ice-cold ECF buffer. A Na^+ free transport medium was prepared by using LiCl, choline chloride, sodium gluconate and KHCO3 instead of NaCl and NaHCO3, respectively. The cells were then solubilized by incubation overnight in 750 μL of 1 N NaOH at room temperature, and the measurement of radioactivity was performed in a liquid scintillation counter (LS6500; Beckman, Fullerton, CA). Cell to medium ratio (μL/mg protein) was calculated as follows: the radioactivity (dpm/μL) in the sample per milligram cell protein (dpm/mg protein).
To analyze the competitive nature of L-dopa and gabapentin for [^14C]L-citrulline uptake, Lineweaver-Burk plots were generated. The inhibitory constant (K i) was calculated from Eq. (2):2 V=Vmax⋅C/Km⋅1+I/Ki+C where I corresponds to the concentration of L-dopa or gabapentin, respectively.

TR-BBB cells [2] = assay: [14C]L-citrulline uptake study in TR-BBB cells (time course, ion dependence, saturation kinetics); assay type: in vitro ADME, rat; settings: ion dependence: Na+ and/or Cl- replaced in the uptake buffer by the named salt; pH 7.4, 37 °C, 5 min; mean ± S.E.M.
Protocol: as §1, §2
For kinetic studies, the Michaelis-Menten constant (K m) and the maximum uptake rate (V max) of [^14C] L-citrulline were estimated from Eq. (1):1 V=Vmax⋅C/Km+C
Where V and C are the initial uptake rate of [^14C] L-citrulline at 5 min and the concentration of L-citrulline, and V max is the maximum uptake rate for the saturable component.

[3] = Rattus norvegicus, 5 min, Table 2, L-amino acid 2 mM, pH 7.4, 37 °C, 5 min, mean ± S.E.M., read-out: Uptake of [14C]L-citrulline (% of control)
[4] = Table 3, transporter inhibitor 2 mM, pH 7.4, 37 °C, 5 min, mean ± S.E.M.
[5] = Table 2, L-amino acid 2 mM, pH 7.4, 37 °C, 5 min, mean ± S.E.M.

NC(=O)CC[C@H](N)C(=O)O [L-Glutamine]
activity at 2000 µM (TR-BBB cells [1]; [3]): 37.5 ± 1.3%

NC1(C(=O)O)CC2CCC1C2 (centres unmarked) [BCH, 2-aminobicyclo-(2,2,1)-heptane-2-carboxylic acid]
activity at 2000 µM (TR-BBB cells [1]; Rattus norvegicus, 5 min, Table 3, transporter inhibitor 2 mM, pH 7.4, 37 °C, 5 min, mean ± S.E.M., read-out: Uptake of [14C]L-citrulline (% of control)): 25.3 ± 4.4% | activity at 20000 µM (TR-BBB cells [1]; Rattus norvegicus, 5 min, Table 3, transporter inhibitor 20 mM, pH 7.4, 37 °C, 5 min, mean ± S.E.M., read-out: Uptake of [14C]L-citrulline (% of control)): 28.1 ± 11.6% | Effect on [14C]L-citrulline uptake (TR-BBB cells [1]): markedly inhibited | Decrease of [14C]L-citrulline uptake (TR-BBB cells [1]; discussion of Table 3): about 75%

NC(N)=NCCCC[C@H](N)C(=O)O [Homoarginine]
Effect on [14C]L-citrulline uptake (TR-BBB cells [1]): no inhibition effect | Uptake of [14C]L-citrulline (% of control) (TR-BBB cells [1]; [4]): 95.98 ± 13.8 % of control

CC(C)[C@H](N)C(=O)O [L-Valine]
Uptake of [14C]L-citrulline (% of control) (TR-BBB cells [1]; [5]): 31.5 ± 1.4 % of control

N[C@@H](CS)C(=O)O [L-Cysteine]
activity at 2000 µM (TR-BBB cells [1]; [3]): 48.4 ± 2.6% | Effect on [14C]L-citrulline uptake (TR-BBB cells [1]): significantly inhibited

NCCCC[C@H](N)C(=O)O [L-Lysine]
Effect on [14C]L-citrulline uptake (TR-BBB cells [1]): significantly inhibited | Uptake of [14C]L-citrulline (% of control) (TR-BBB cells [1]; [5]): 74.5 ± 9.0 % of control | Uptake of [14C]L-citrulline (% of control) (TR-BBB cells [1]; Table 2, L-amino acid 20 mM, pH 7.4, 37 °C, 5 min, mean ± S.E.M.): 66.78 ± 2.1 % of control

CNC(C)(C)C(=O)O [MeAIB, N-(methylamino) isobutyric acid]
Effect on [14C]L-citrulline uptake (TR-BBB cells [1]): no inhibition effect | Uptake of [14C]L-citrulline (% of control) (TR-BBB cells [1]; [4]): 99.8 ± 6.3 % of control

O=C([O-])[C@H](O)[C@@H](O)[C@H](O)[C@H](O)CO.[Na+] [Sodium gluconate, sodium gluconate]
Uptake of [14C]L-citrulline (% of control) (TR-BBB cells [2]): 103.9 ± 6.8 % of control

NCC1(CC(=O)O)CCCCC1 [Gabapentin]
Mode of inhibition of [14C]L-citrulline uptake (TR-BBB cells [1]; Lineweaver-Burk plot): competitively inhibited | Ki (TR-BBB cells [1]; Lineweaver-Burk plot, 300 μM inhibitor, pH 7.4, 37 °C, 5 min): 679 µM | IC50 (TR-BBB cells [1]; Rattus norvegicus, 5 min, pH 7.4, read-out: IC50 for inhibition of [14C]L-citrulline uptake): 223 µM | Effect on [14C]L-citrulline uptake (TR-BBB cells [1]): strongly inhibited; also recorded: significantly inhibited | Uptake of [14C]L-citrulline (% of control) (TR-BBB cells [1]; Table 4, drug 0.5 mM, pH 7.4, 37 °C, 5 min, mean ± S.E.M.): 45.0 ± 2.52 % of control | Uptake of [14C]L-citrulline (% of control) (TR-BBB cells [1]; Table 4, drug 5 mM, pH 7.4, 37 °C, 5 min, mean ± S.E.M.): 29.6 ± 2.73 % of control

N[C@@H](CO)C(=O)O [L-Serine]
activity at 2000 µM (TR-BBB cells [1]; [3]): 79.7 ± 2.5% | Effect on [14C]L-citrulline uptake (TR-BBB cells [1]): significantly inhibited

C[N+](C)(C)CCO.[Cl-] [Choline Chloride, choline chloride]
Uptake of [14C]L-citrulline (% of control) (TR-BBB cells [2]): 83.3 ± 5.7 % of control

CN1C(=O)C=CC1=O [Methylmaleimide, L-methylmaleimide]
Effect on [14C]L-citrulline uptake (TR-BBB cells [1]): no inhibition effect | Uptake of [14C]L-citrulline (% of control) (TR-BBB cells [1]; [4]): 103.2 ± 10.1 % of control

NCCc1ccc(O)c(O)c1 [Dopamine]
activity at 2000 µM (TR-BBB cells [1]; Rattus norvegicus, 5 min, Table 4, drug 2 mM, pH 7.4, 37 °C, 5 min, mean ± S.E.M., read-out: Uptake of [14C]L-citrulline (% of control)): 110 ± 2.7% | Effect on [14C]L-citrulline uptake (TR-BBB cells [1]): no effect; also recorded: no significant effects
